Laboratory results taken from patent publication EP2292225A1 (priority 1997, dated 1998).

Test system: left carotid artery
Assay: Inter-arterial infusion of crystals after balloon trauma (scintillation, autoradiography, morphometry)
Type: in vivo, Sprague-Dawley rats
Details: for present over the treated length of artery: 1 mg crystalline in 300 ml vehicle
Description: Another study employed twenty, male, Sprague-Dawley rats. The rats underwent balloon trauma to their left carotid artery, followed by inter-arterial infusion of a solution containing 1 mg crystalline cytochalasin B in […] vehicle (Hanks sterile salt solution with 0.5% Cremophor) or a diluent (saline) control. Animals were sacrificed immediately after infusion, and 2, 4, 7 and 14 days post-trauma and infusion. Post-sacrifice, the left and the right (control) carotid arteries were removed. Samples of arteries were obtained for quantitation of ^3H-cytochalasin B by oxidation and scintillation counting, histopathology, autoradiography and vascular morphometry. Histopathology documented uniform, circumferential balloon trauma in the arterial wall of the left carotid arteries.

## C=C1[C@@H](C)[C@H]2[C@H](Cc3ccccc3)NC(=O)[C@]23OC(=O)/C=C/[C@H](O)CCC[C@@H](C)C/C=C/[C@H]3[C@@H]1O [cytochalasin B]
crystalline, inter-arterial infusion
  neointima formation compared to diluent treated rats: no statistically significant reduction in neointima formation
Day 0
  present over the treated length of artery: approximately 8 ug
Day 2
  present over the treated length of artery: less than 2 ng
